Assays:
HeLa cells = experiment: Cisplatin potentiation assay; type: cell-based; conditions: 25 μM compound + […] μM cisplatin (LD10), 72 h, alamarBlue
[1] = test system: short duplex DNA substrate (EtBr-DS); experiment: Ethidium bromide displacement assay; type: binding; conditions: compound at exonuclease IC50 of SNM1A, 10 min
[2] = biological target: T1, SNM1A exonuclease activity (Homo sapiens, UniProt Q6PJP8); experiment: Gel-based IC50 determination, SNM1A exonuclease activity; conditions: 0.2 nM SNM1A, 110 nM 5P-1F, 60 min, 37 °C, triplicate
T1 sequence (Q6PJP8 698-1040): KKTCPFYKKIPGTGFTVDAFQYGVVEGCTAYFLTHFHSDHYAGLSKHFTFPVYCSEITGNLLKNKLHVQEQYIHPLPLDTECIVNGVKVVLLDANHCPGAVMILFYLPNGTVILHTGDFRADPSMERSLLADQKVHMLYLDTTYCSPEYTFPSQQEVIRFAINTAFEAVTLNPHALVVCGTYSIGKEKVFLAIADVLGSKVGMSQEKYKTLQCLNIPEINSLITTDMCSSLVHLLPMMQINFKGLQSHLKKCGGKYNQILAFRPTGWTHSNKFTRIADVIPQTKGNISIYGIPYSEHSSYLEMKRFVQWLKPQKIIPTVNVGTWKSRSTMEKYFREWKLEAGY

nuclease = conditions: cited from earlier work
SNM1A = biological target: T2, SNM1A (Homo sapiens, UniProt Q6PJP8); experiment: Gel-based secondary screen validation; type: biochemical; conditions: 25 and 6.25 μM compound
T2 sequence (Q6PJP8 698-1040): T1 sequence (Q6PJP8 698-1040)

Compound: O=c1cc(-c2ccc(O)c(-c3c(O)cc(O)c4c(=O)cc(-c5ccc(O)cc5)oc34)c2)oc2cc(O)cc(O)c12 [Compound 13, AMENTOFLAVONE]
- Cell survival with sublethal cisplatin (potentiation) (HeLa cells): reduced cell survival
- Displacement of ethidium bromide from DNA [1]: do not appear to significantly displace ethidium bromide

Compound: O=C(O)C1=CC(=C(c2ccc(O)c(C(=O)O)c2)c2ccc(O)c(C(=O)O)c2)C=CC1=O [Compound 20, AURINTRICARBOXYLIC ACID]
- Exonuclease IC50 [2]: nanomolar range
- Displacement of ethidium bromide from DNA [1]: apparent nonspecific interactions with DNA
- Nuclease inhibition (nuclease): nonspecific nuclease inhibitor

Compound: Nc1c(S(=O)(=O)O)cc(Nc2ccc(Nc3nc(Cl)nc(Nc4cccc(S(=O)(=O)O)c4)n3)c(S(=O)(=O)O)c2)c2c1C(=O)c1ccccc1C2=O [Compound 30, REACTIVE BLUE 2]
- Cell survival with sublethal cisplatin (potentiation) (HeLa cells): reduced cell survival
- Displacement of ethidium bromide from DNA [1]: apparent nonspecific interactions with DNA

Compound: O=C(O[C@@H]1Cc2c(O)cc(O)cc2O[C@@H]1c1cc(O)c(=O)c2c(O)c(O)cc([C@H]3Oc4cc(O)cc(O)c4C[C@H]3OC(=O)c3cc(O)c(O)c(O)c3)c2c1)c1cc(O)c(O)c(O)c1 [Compound 40, […]]
- Displacement of ethidium bromide from DNA [1]: apparent nonspecific interactions with DNA

Compound: C[C@@H]1CC[C@@]23CCC4(C)[C@@](C=CC5[C@@]6(C)CCC(=O)C(C)(C)C6CC[C@]54C)(OC2=O)C3[C@H]1C (some centres unmarked) [Compound 44, 3-OXOURSAN (28-13)OLIDE]
- Assay interference in the gel-based screen (reason for exclusion) (SNM1A): internal fluorescence

Compound: O=C1OC2(c3ccc(O)cc3Oc3cc(O)ccc32)c2ccccc21 [Compound 54, FLUORESCEIN]
- Assay interference in the gel-based screen (reason for exclusion) (SNM1A): internal fluorescence

Compound: COC(=O)c1cc(O)c(=O)c2c(O)c(O)ccc2c1 [Compound 61, METHYL 7-DESHYDROXYPYROGALLIN-4-CARBOXYLATE]
- Displacement of ethidium bromide from DNA [1]: do not appear to significantly displace ethidium bromide

— paper PMC8047731 (ACS Omega, 2021)
